The source of these data is patent US20030175678A1, “Methods for identifying genes regulating desired cell phenotypes” (priority 2001, published 2003).

In experiment [1] the test system is C. fascicularis suspension culture. The experiment in a line: Differential induction of EGCG in Crassula fascicularis suspension culture (HPLC). Format: cell-based. The conditions noted are these: B49 medium, treated on day 7 following subculture. As for the experimental part:
Differential induction of catechins in the C. fascicularis suspension culture was performed in 500 mL conical flasks containing 190 mL of either growth medium B105 (modified Gamborg's B5 medium containing 2,4-D (1 mg/L), kinetin (0.1 mg/L), coconut water (100 mL/L), glutamine (10 mM), and 3% sucrose) or a secondary metabolite production medium B49 (Gamborg's B5, 5% sucrose, no hormones), inoculated with 70 mL of 14 day old suspension culture. Cultures were grown for 14 days before harvest and processing. Further cultures grown on production medium B49 were treated using one of each of the following protocols:
(4) A 40 mL aliquot of a day 0 suspension growing on B105 medium was transferred to a 100 mL flask. On day 3, a sterile solution of 5-azacytidine (5-AC) in water was added for a final concentration of 3×10^−5 M, and the resultant mixture was incubated for 11 days. At this point the 40 mL 5-AC-treated culture was subcultured twice before inoculating 190 mL B49 production medium in a 500 mL flask with 70 mL of day 14 suspension. The culture was then treated further according to protocol (2). […]
Lyophilized biomass from 100 mL plant cell culture was extracted three times with 10 mL of boiling aqueous 0.2 M NaH2PO4 solution (total 30 mL). The combined, cooled, extracts were extracted with EtOAc (2×30 mL). The combined EtOAc extracts were then dried under a stream of nitrogen. The samples were dissolved in 50% aqueous acetonitrile at a concentration of 1.0 mg/mL; a 0.1 mL aliquot was transferred into a 0.25 mL glass insert to a 2 mL HPLC vial. The extraction procedure is scalable according to the initial volume of the plant-cell culture used to generate the biomass.
HPLC analyses of compounds in plant cell culture extracts were performed in two systems. System 1 (S1) utilized a Rainin Dynamax SD-200 pumping system, a Varian Dynamax PDA-2 diode array detector, with a Waters XTerra RP 18 (5 μm, 3.0×150 mm) column. The mobile phase was composed from 0.1% acetic acid in H2O (solvent A) and 0.1% acetic acid in acetonitrile (solvent B), at a flow rate of 0.75 mL/min: after maintaining initial conditions (A:B, 95:5) for one minute post-injection, gradient elution was accomplished in a linear fashion over 30 min (to A:B, 40:60). A total of 10 μL of each sample was injected onto the column and eluates were analyzed at a wavelength of 275 nm. System 2 (S2) utilized API-electrospray-LC-MS: a Hewlett Packard series HP1100 with a Waters Xterra RP18 (3.5 μm, 2.1×100 mm) column was used as the inlet for a Micromass Platform-LC, in the positive-ion mode. […] Compounds of interest were detected at 254 nm and as single-charged species via selected-ion monitoring in the mass spectrometer. […]

The subject of the next experiment is PAL, CHS, and F3-OH. The experiment in a line: Quantitative RT-PCR of PAL, CHS and F3-OH transcripts in C. barkleyi cells. The conditions noted are these: after 24 hours of treatment, relative to TBP. The format is cell-based, Crassula barkleyi. The procedure: Differential induction of mRNA transcripts associated with the synthesis of catechin derivatives in the C. barkleyi suspension culture (as described in Example 2) and the C. dejecta suspension culture (as described in Example 3) were performed in 250 mL conical flasks containing 100 mL of a secondary metabolite production medium B49 (Gamborg's B5, 5% sucrose, no hormones), inoculated with 16 mL of a 14 day old suspension culture (C. barkleyi) or 40 mL of a 21 day old suspension culture (C. dejecta). The cultures were incubated under low light conditions (approximately 30 lux) at 25° C.
Induction of mRNA usually occurs within 48 hours of receipt of an inducing signal. Accordingly, samples were taken at intervals of 2, 4, 6, 10, 15, 24, and 48 hours following the above treatments. Samples, sufficient to give at least 1 mL packed cell volume, were centrifuged for five minutes at 4000 rpm and the supernatant removed. […]
This mixture was incubated at 42° C. for 50 min then denatured at 70° C. for 15 min and stored at −20° C., after a thirty-fold dilution with distilled water. An aliquot of this reaction was then used to quantify the relative abundance of each of the three genes (PAL, CHS, F3-OH) to the invariant one (TBP), using a real time quantification PCR machine (Perkin Elmer 7700) and the previously described oligonucleotides (shown in FIG. 7) in the following conditions: […]

The next experiment has as its system terpene cyclases. The experiment in a line: PCR with degenerate terpene cyclase primers in Ajuga reptans cultures. The format is cell-based. As to conditions: 24 hour post-treatment cultures.

On to `CC/C=C\CC1C(=O)CCC1CC(=O)OC` (stereo not shown) [methyl jasmonate], for which the “EGCG (mg/gdwt) two days after treatment” value in experiment [1] came out at 67 mg/gdwt. For the same compound, the “induction of transcription of PAL, CHS, and F3-OH” value in the experiment with PAL, CHS, and F3-OH was “at least twenty fold”. In addition, in the experiment on terpene cyclases, the “PCR band of first degenerate primer combination” value was “induced” and the “PCR band of second degenerate primer combination (candidate cyclase for compound 6)” value is on record as “not”.
